System: potato tubers
Assay: Sprouting-inhibiting treatment of potato tubers by thermal fogging
Assay type: in vivo
Details: after 5 months; cold room 8 to 9° C.; 45 g/tonne then 15 g/tonne every 20 days by thermal fogging
Experimental: The effectiveness of eugenol and of isoeugenol in the sprouting-inhibiting treatment of potato tubers was evaluated and compared with that of other terpenes.
The following compositions were used in the case of eucalyptol, eugenol, isoeugenol, limonene, safrole and terpineol:
60% by weight of terpene;
7% by weight of a nonionic emulsifier;
33% by weight of butyl acetate.
In the case of L-carvone, the following composition was employed:
30% by weight of L-carvone;
10% by weight of ethanol;
5% by weight of nonionic emulsifier;
35% by weight of propylene glycol.
Isopropyl chlorophenylcarbamate (CIPC) is a compound used in the art as sprouting inhibitor for potato tubers. Its activity was compared with that of eugenol and of isoeugenol.
The composition based on isopropyl chloro-phenylcarbamate has the following formulation: […]
20% by weight of isopropyl chlorophenyl-carbamate;
50% by weight of propylene glycol;
10% by weight of nonionic emulsifier;
Each of the compositions tested was applied by thermal fogging. The temperature at the outlet of the thermal fogging device was 240° C., except in the case of the compositions based on L-carvone and on CIPC, where it was 180° C.
The amount of composition which has to be applied is calculated in each case so as to obtain an equivalent concentration of active material on the potato tubers.
In this example, repeated applications were carried out by following the following protocol:
45 g/tonne of tubers at the beginning of storage;
15 g/tonne of tubers every 20 days; so that, after 6 months, 165 g of active principle have been applied per tonne of tubers.
During storage, the tubers were stored in a cold room at a temperature of 8 to 9° C.

| Compound | Loss in weight of the tubers | Total weight of the sprouts >2 mm | Tubers at the white point stage | Tubers with sprouts 2 to 5 mm | Tubers with sprouts <2 mm | Tubers with sprouts >2 mm | Tubers with sprouts >5 mm | Unsprouted tubers |
| --- | --- | --- | --- | --- | --- | --- | --- | --- |
| L-carvone | 3.3% | 42.0 g | 8.7% | 28.8% | 32.3% | 55.0% | 26.2% | 4.0% |
| C=C(C)[C@H]1CC=C(C)CC1 [LIMONENE, limonene] | 4.5% | 283.8 g | 1.2% | 8.7% | 1.5% | 96.8% | 88.1% | 0.5% |
